Test [1] concerns WJ-MSCs. Conditions: glutathione at 100 μM (tested 0, 10, 50, 100 μM) after H2O2 0-100 μM; FIG. 2. The procedure: In order to determine the optimal concentration of glutathione in the cryopreservation formulation, the WJ-MSCs were treated with hydrogen peroxide (H2O2) at concentrations of 0 μM, 10 μM, 50 μM, and 100 μM, to induce stress caused by reactive oxygen species, and then further treated with glutathione at concentrations of 0 μM, 10 μM, 50 μM, and 100 μM, and cell recovery was evaluated using a CCK-8 assay.

Test [2] has as its system WJ-MSCs. Conditions: FIG. 1.
Protocol: Specifically, the umbilical cord was cut into 3-4 cm lengths, the tissue was finely chopped and treated with collagenase solution (Gibco, USA) for 60 to 90 minutes to degrade the extracellular matrix, and 0.25% trypsin (Gibco, USA) was added to further induce digestion for 30 minutes at 37° C. Then, fetal bovine serum (FBS; Biowest, USA) was added and cells were obtained by centrifugation at 1,000 g for 10 minutes, and then were cultured in a 5% CO2 environment at 37° C. using MEM Alpha (Minimum Essential Medium, Invitrogen-Gibco, Rockville, MD) medium containing 10% FBS (fetal bovine serum, Invitrogen-Gibco) and 50 μg/mL gentamicin (Invitrogen-Gibco) to obtain human umbilical cord-derived mesenchymal stem cells (WJ-MSCs), which were then used in the experiment. […] The WJ-MSCs were seeded at 1×10^4 cells in a 96-well plate and cultured for 24 hours.

SMILES strings stand for the structures.

For `N[C@@H](CCC(=O)N[C@@H](CS)C(=O)NCC(=O)O)C(=O)O` [glutathione], the “cell viability (cell recovery)” value in the test on WJ-MSCs [1] was “highest”. In addition, in the test with WJ-MSCs [2] (1×10^4 cells in 96-well plate, cultured 24 hours, compared with acetadote, fursultiamine hydrochloride, vitamin C), the cell viability entry is listed as “highest”. Also, in the test on WJ-MSCs [2] (CCK-8 assay), the cell proliferation result was “further increased”.
